The test system of assay [1] is rat Chronic Constriction Injury model (Bennett Model) of neuropathic pain. The assay can be described thus: von Frey monofilament test of mechanical allodynia (mechanical threshold) in rat chronic constriction injury model. It is filed as in vivo, Wistar rat. The text has this: The inventors evaluated the efficacy of a various alpha-2-adrenergic receptor agonists and compared them against saline in the rat Chronic Constriction Injury model (i.e., Bennett Model) using Wistar rats. […] The doses given would mimic those achievable by a continuous release drug depot containing a biodegradable polymer (7 rats in each group). […]
(§1) Results from another rat chronic constriction injury model study silimar to that discussed in Example 5, except some drug compositions having predominantly alpha 1 agonist activity and some drug compositions having predominantly alpha 2 agonist activity were given as indicated in the table below. The doses given would mimic those achievable by a continuous release drug depot containing a biodegradable polymer (7 rats in each group). […]
(§2) The inventors evaluated the efficacy of a various beta-2-adrenergic receptor agonists and compared them to clonidine (an alpha-2-agonist) and saline in the rat Chronic Constriction Injury model (i.e., Bennett Model) using Wistar rats.
Hargreaves tests were conducted on days 7 and 14; […], where some drug compositions having predominantly beta-2 agonist activity were compared to clonidine a drug composition that has predominantly alpha-2 agonist activity and saline. The doses given would mimic those achievable by a continuous release drug depot containing a biodegradable polymer (7 rats in each group). […]

Assay [2] shares this test system. In words: Hargreaves test of thermal hyperalgesia (thermal paw withdrawal latency) in rat chronic constriction injury model. It is filed as in vivo, Wistar rat.
Text: The inventors evaluated the efficacy of a various alpha-2-adrenergic receptor agonists and compared them against saline in the rat Chronic Constriction Injury model (i.e., Bennett Model) using Wistar rats. […] The doses given would mimic those achievable by a continuous release drug depot containing a biodegradable polymer (7 rats in each group).
Each group received the treatment indicated above for total of 15 days and subjected to the following two tests: (1) the Hargreaves test on days 7 and 14; and (2) the von Frey test on days 8 and 15.
as §1, §2
Hargreaves tests were conducted on days 7 and 14; and von Frey tests were performed on days 8 and 15, where some drug compositions having predominantly beta-2 agonist activity were compared to clonidine a drug composition that has predominantly alpha-2 agonist activity and saline. The doses given would mimic those achievable by a continuous release drug depot containing a biodegradable polymer (7 rats in each group).
Each group received the treatment indicated above for total of 15 days and the following two tests: (1) the Hargreaves test on days 7 and 14; and (2) the von Frey test on days 8 and 15.

[3] abbreviates: Example 5, FIG. 36, 100 micrograms/kg subcutaneous every day for 15 days, days 7 and 14.
Setting [4] is: Example 7, FIG. 40, 5 mg/kg subcutaneous every day for 15 days, day 14, vs saline.

For the compound `Clc1cccc(Cl)c1N=C1NCCN1` [clonidine, 2,6-dichloro-N-2-imidazolidinyldenebenzenamine], the “pain behavioral response for mechanical allodynia” value in assay [1] (Example 5, FIG. 35, 0.02 mg/kg subcutaneous every day for 15 days, day 15, vs saline) was “statistically significant results of decreasing pain responses”. In assay [1] (clonidine subcutaneously 0.02 mg/kg/day, compared to unloaded polymer depots, FIG. 4), the “pain behavioral response (measured as a percentage of baseline) for mechanical allodynia” value is “reduced the behavioral response”. Moreover, the “pain behavioral response for thermal hyperalgesia” value is “statistically significant result of decreasing pain responses” in assay [2] (Example 5, FIG. 36, 0.02 mg/kg subcutaneous every day for 15 days, days 7 and 14); “statistically significant result of decreasing pain responses” in assay [2] (Example 6, FIG. 37, 0.02 mg/kg subcutaneous every day for 15 days, days 7 and 14); “statistically significant result of decreasing pain responses” in assay [2] (Example 7, FIG. 39, 0.02 mg/kg subcutaneous every day for 15 days, day 14, vs saline).
`N=C(N)N/N=C/c1c(Cl)cccc1Cl` [guanabenz]: the “pain behavioral response for mechanical allodynia” value was “decreased mechanical allodynia” in assay [1] (Example 6, FIG. 38, 1 mg/kg subcutaneous daily, day 8, compared to saline) and “decreased mechanical allodynia” in assay [1] (Example 6, FIG. 38, 5 mg/kg subcutaneous daily, day 15, compared to saline). The “pain behavioral response for thermal hyperalgesia” value in assay [2] (Example 6, FIG. 37, 1 mg/kg subcutaneous every day for 15 days, day 7) was “statistically significant result of decreasing pain responses”.
On to `N=C(N)NC(=O)Cc1c(Cl)cccc1Cl` [guanfacine], for which the “pain behavioral response for mechanical allodynia” value in assay [1] (Example 5, FIG. 35, 5 mg/kg subcutaneous every day for 15 days, day 15, vs saline) is “statistically significant results of decreasing pain responses”. The “pain behavioral response for thermal hyperalgesia” value in assay [2] (Example 5, FIG. 36, 5 mg/kg subcutaneous every day for 15 days, days 7 and 14) was “statistically significant result of decreasing pain responses”.
With `Cc1cccc(C(C)c2cnc[nH]2)c1C` (centres unmarked) [medetomidine], the “pain behavioral response for mechanical allodynia” value in assay [1] (Example 5, FIG. 35, 200 micrograms/kg subcutaneous every day for 15 days, day 15, vs saline) is on record as “statistically significant results of decreasing pain responses”. The “pain behavioral response for thermal hyperalgesia” value in assay [2] (setting [3]) is given as “statistically significant result of decreasing pain responses”; in assay [2] (Example 5, FIG. 36, 200 micrograms/kg subcutaneous every day for 15 days, day 14) it was “statistically significant result of decreasing pain responses”.
In the case of `Cc1cc(C(C)(C)C)c(O)c(C)c1CC1=NCCN1` [oxymetazoline], the “pain behavioral response for mechanical allodynia” value in assay [1] (Example 6, FIG. 38, 0.1 mg/kg subcutaneous every day for 15 days, day 8 and 15, compared to saline) is on record as “decreasing pain responses”; in assay [1] (Example 6, FIG. 38, 0.3 mg/kg subcutaneous every day for 15 days, day 8 and 15, compared to saline), “decreasing pain responses”. Further, the “pain behavioral response for thermal hyperalgesia” value in assay [2] (Example 6, FIG. 37, 0.1 mg/kg subcutaneous every day for 15 days, day 7) was “statistically significant result of decreasing pain responses”; in assay [2] (Example 6, FIG. 37, 0.3 mg/kg subcutaneous every day for 15 days, days 7 and 14), “statistically significant result of decreasing pain responses”.
For `CNC[C@H](O)c1cccc(O)c1` [phenylephrine], in assay [1] (Example 6, FIG. 38, 10 mg/kg subcutaneous daily, day 8, compared to saline), the “pain behavioral response for mechanical allodynia” value is listed as “decreased mechanical allodynia”. Besides, the “pain behavioral response for thermal hyperalgesia” value was “statistically significant result of decreasing pain responses” in assay [2] (Example 6, FIG. 37, 2 mg/kg subcutaneous every day for 15 days, day 7); “statistically significant result of decreasing pain responses” in assay [2] (Example 6, FIG. 37, 10 mg/kg subcutaneous every day for 15 days, days 7 and 14).
Regarding `CC(NCCc1ccc(O)cc1)C(O)c1ccc(O)cc1` (centres unmarked) [ritodrine], in assay [1] (setting [4]), the “pain behavioral response for mechanical allodynia” value was “statistically significant result of decreasing pain responses”. Also, the “pain behavioral response for thermal hyperalgesia” value in assay [2] (Example 7, FIG. 39, 2 mg/kg subcutaneous every day for 15 days, day 7, vs saline) was “statistically significant result of decreasing pain responses”; in assay [2] (Example 7, FIG. 39, 5 mg/kg subcutaneous every day for 15 days, day 14, vs saline), “statistically significant result of decreasing pain responses”.
`CC(C)(C)NCC(O)c1ccc(O)c(CO)c1` (centres unmarked) [salbutamol]: the “pain behavioral response for mechanical allodynia” value is “statistically significant result of decreasing pain responses” in assay [1] (setting [4]); “statistically significant result of decreasing pain responses” in assay [1] (Example 7, FIG. 40, 10 mg/kg subcutaneous every day for 15 days, days 8 and 15, vs saline). Further, the “pain behavioral response for thermal hyperalgesia” value in assay [2] (Example 7, FIG. 39, 5 mg/kg subcutaneous every day for 15 days, days 7 and 14, vs saline) is “statistically significant result of decreasing pain responses”; in assay [2] (Example 7, FIG. 39, 10 mg/kg subcutaneous every day for 15 days, days 7 and 14, vs saline), “statistically significant result of decreasing pain responses”.
`CC(C)(C)NCC(O)c1cc(O)cc(O)c1` (centres unmarked) [terbutaline]: in assay [1] (Example 7, FIG. 40, 0.5 mg/kg subcutaneous every day for 15 days, day 14, vs saline), the “pain behavioral response for mechanical allodynia” value is “statistically significant result of decreasing pain responses”. Besides, the “pain behavioral response for thermal hyperalgesia” value in assay [2] (Example 7, FIG. 39, 0.1 mg/kg subcutaneous every day for 15 days, days 7 and 14, vs saline) is “statistically significant result of decreasing pain responses”; in assay [2] (Example 7, FIG. 39, 0.5 mg/kg subcutaneous every day for 15 days, days 7 and 14, vs saline), “statistically significant result of decreasing pain responses”.
For `Clc1ccc2nsnc2c1NC1=NCCN1` [tizanidine], the “pain behavioral response for mechanical allodynia” value in assay [1] (Example 5, FIG. 35, 100 micrograms/kg subcutaneous every day for 15 days, day 15, vs saline) is reported as “statistically significant results of decreasing pain responses”. The “pain behavioral response for thermal hyperalgesia” value in assay [2] (setting [3]) is recorded as “statistically significant result of decreasing pain responses”.
